According to patent US6365622B1 (Sigma-Tau HealthScience S.p.A., priority 1998, dated 2002):

Key:
[1] = test system: brain cells of Wistar rats; assay: Survival and growth of isolated brain cells treated with IGF-I, carnitines and α-lipoic acid; type: cell-based; conditions: 24 hours after addition; IGF-I 25 ng/ml, acetyl L-carnitine 100 ng/ml, carnitine mixture 100 ng/ml
Description: To this end, brain cells of Wistar rats were isolated according to the method described by Thanguipon (Thanguipon W., Dev. Brain Res., 11, 177, 1983) and were distributed on plates with a density of 3×10^5/cm^2. To the culture medium was added cytosine arabino-furanoside ([…]) to prevent the replication of non-neuronal cells. After eight days, the cells were washed and maintained in a culture in which the serum was replaced with BME (Basal Eagles Medium, Life Technologies, Gaithersburg, Md.) containing a 5 mM KCl concentration.
Cell survival and growth in culture were observed 24 hours after addition of the substances to the medium, on 35 mm disks in contact with 10 ng/ml of fluorescein acetate according to the technique described by Jones (Jones K. H., J. Histochem. Cytochem., 33, 77, 1985). The cell count was done with a fluorescence microscope.

[2] = test system: neuromuscular conduction in diabetic rats; assay: Neuromuscular conduction test in the diabetic rat (streptozotocin); type: in vivo; conditions: after 4 weeks
Description: In these tests, we induced experimental diabetes in rats by intravenously injecting the experimental animals (rats with a mean weight of 300 g) with 50 mg/kg of streptozotocin. In the animals with induced diabetes (serum glucose above 450 mg/dl) the neuromuscular conduction velocity (NMCN7) was measured. To this end, the sciatic nerve was isolated (2 cm length) and the soleus muscle was separated from the gastrocnemius and its distal tendon cut and connected up to an isometric transducer which recorded the muscular contraction force (MCF). The muscle was stimulated via the sciatic nerve by means of two electrodes inserted at a distance of 10 mm from the nerve and connected up to a stimulator.
A bipolar electrode was placed in the distal end of the muscle for displaying the electromyogram via an oscilloscope.
The NMCV was measured in m/sec, dividing the distance between the stimulation electrodes by the mean difference in latency between the start of the […] potentials evoked in the two sites. The MCF was expressed in mm.

[3] = test system: tibial nerve after cutting the sciatic nerve in diabetic rats; assay: Sciatic nerve regeneration test in diabetic rats (alloxan, cut sciatic nerve); type: in vivo, rat; conditions: thirty days after cutting the sciatic nerve, diet 200 mg/kg acetyl L-carnitine or carnitine mixture, 50 mg/kg α-lipoic acid
Description: The technique used in these tests is the one described by Fernandez (Fernandez E., Int. J. Clin. Pharmacol. Res., 10, 85, 1990).
Diabetes (serum glucose above 450 mg/dl) was induced in a group of rats by subcutaneous injection of 100 mg/kg of alloxan. […] The compounds were administered a week before cutting the sciatic nerve and for thirty days after cutting.
The sciatic nerve was cut under anaesthesia and after exposing 1 cm of it at the level of the sciatic foramen. The border of the lesion was marked with an epineural suture. Thirty days after cutting the nerve, the tissue of the tibial nerve, one of the main divisions of the sciatic nerve, was examined, after sacrificing the animals. Four cross-sections of the tibial nerve measuring approximately 4 mm in length were thus subjected to morphological and morphometric examination by means of a semiautomatic image analyser (Zeiss Videoplan Image Analyser).
The number of regenerating axons and their density per […] were counted, as well as the degenerate elements.

[4] = test system: wobbler mice; assay: Motor co-ordination abnormality test in wobbler mice; type: in vivo; conditions: oral twenty days; for percentage increase in running time: acetyl L-carnitine 200 mg/kg, carnitine mixture 200 mg/kg, α-lipoic acid 50 mg/kg, time to run 10 cm; for holding time on the edge of an inclined platform (in words): versus controls
Description: These tests were conducted in “wobbler mice”, that is to say animals that present an unsteady, staggering gait, an abnormal position of the paws and a reduced speed of movement. These abnormalities are related to progressive atrophy of the motoneurons and musculo-cutaneous nerve fibres, particularly as affecting the anterior limbs. The tests were conducted according to the procedure proposed by Mitsumoto (Mitsumoto H., Annal. Neurol., 36, 14, 1994). […] The examination was performed by evaluating, in the treated animals versus controls, the time that each animal holds on to the edge of an inclined platform (holding time) and also the time it takes to run a distance of 10 cm (running time).

[5] = test system: sorbitol in ocular lens and sciatic nerve of diabetic rats; assay: Sorbitol content in ocular lens and sciatic nerve in the diabetic rat (streptozotocin); type: in vivo; conditions: i.p. eight days, acetyl L-carnitine 100 mg/kg, carnitine mixture 100 mg/kg, α-lipoic acid 25 mg/kg
Description: These tests were conducted in a group of rats in which diabetes was induced by means of the intravenous administration of 50 mg/kg of streptozotocin. One week after injection, serum glucose was tested and those rats were considered diabetic which presented serum glucose values above 450 mg/dl. These animals then received intraperitoneal injections, for eight consecutive days, of acetyl L-carnitine (100 mg/kg), or carnitine mixture (acetyl L-carnitine+propionyl L-carnitine+isovaleryl L-carnitine in a […] weight ratio to one another) (100 mg/kg), or (x-lipoic acid (25 mg/kg), either alone or in various combinations.
After eight days of treatment, after suitable isolation, the sorbitol concentration present in both the sciatic nerve and the ocular lens of diabetic rats was measured before and after the treatment administered.

[6] = test system: alloxan-induced hyperglycaemia; assay: Experimental diabetic hyperglycaemia test (alloxan); type: in vivo; conditions: alloxan hyperglycaemic rat; for Serum glucose, Initial: before treatment; for Serum glucose, After 21 days: oral for three weeks, acetyl L-carnitine 200 mg/kg, α-lipoic acid 50 mg/kg
Description: Controlling serum glucose is therefore one of the most important means of preventing diseases related to diabetes. […] The hyperglycaemia was induced by subcutaneous injection of alloxan (100 mg/kg) in the rat, and those rats were considered hyperglycaemia which presented serum glucose levels above 450 mg/dl seven days after the alloxan injection.
Treatment with the test substances was given orally for a period of three weeks. At the end of this period, serum glucose was measured in the various groups of rats, both hyperglycaemic and treated.

[7] = test system: proprioceptive sensory perception abnormalities induced by cisplatin; assay: Cisplatin-induced sensory neuronal lesions (rotarod test); type: in vivo; conditions: mouse rotarod; cisplatin 10 mg/kg s.c. seven days; oral seven days acetyl L-carnitine 300 mg/kg, carnitine mixture 300 mg/kg, α-lipoic acid 50 mg/kg
Description: The proprioceptive sensory perception abnormalities induced by cisplatin in the mouse were evaluated by means of the rotarod test (Apfel, S. C., Ann. Neurol., 29, 89, 1991).

[8] = test system: cerebral ischaemia induced by occluding the middle cerebral artery (MCA); assay: Neuroprotective activity in experimental cerebral ischaemia (endothelin-1 occlusion of the MCA); type: in vivo; conditions: rat, i.v. 5 minutes after endothelin; acetyl L-carnitine 50 mg/kg, carnitine mixture 50 mg/kg, α-lipoic acid 20 mg/kg; read three days later
Description: Occlusion of the artery is induced, and the resulting ischaemia can be checked three days after this procedure by transcardiac perfusion of a solution of paraformaldehyde (4% in PBS).
After removing the brain, it was placed in fixative containing 10% sucrose, and cryostatic sections ([…]) fixed with cresyl violet were examined under the optical microscope.
The volume of the infarcted area was calculated according to the method described by Park (Park C. K., Anns. Neurol., 20-150, 1989).

[9] = Toxicological tests: high single doses, parenteral and oral; type: in vivo; conditions: rats and mice

Molecule | Cell growth (% vs controls) [1] [% vs controls] | MCF (muscular contraction force) [2] [mm] | NMCV (neuromuscular conduction velocity) [2] [m/sec] | Density of tibial nerve degenerate elements (per 100 nm^2) [3] [per 100 nm^2] | Number of tibial nerve degenerate elements [3] | percentage increase in running time [4] [%] | holding time on the edge of an inclined platform (in words) [4] | Sorbitol, Lens [5] [nmol/mg] | Sorbitol, Sciatic nerve [5] [nmol/mg] | Serum glucose, Initial [6] [mg/dL] | Serum glucose, After 21 days [6] [mg/dL] | Equilibrium time [7] [s] | Extent of ischaemia (volume in mm^3) due to occlusion of the MCA, Volume [8] [mm^3] | amount administered orally without any of the animals dying ([9]; oral) | amount administered parenterally without any of the animals dying ([9]; parenteral)
IGF-I: insulin-like growth factor, a peptide of the proinsulin group (somatomedins) | 45 ± 2.8 | – | – | – | – | – | – | – | – | – | – | – | – | – | –
O=C(O)CCCCC1CCSS1 (stereo not drawn) [α-lipoic acid] | 5 ± 0.39 | 41.9 ± 3.3 | 40.1 ± 1.5 | 0.20 ± 0.04 | 590 ± 0.70 | 40 ± 3.9 | improves | 30.8 ± 3.2 | 1.08 ± 0.10 | 502.8 ± 36 | 360.4 ± 30 | 9.9 ± 0.8 | 34.5 ± 2.1 | – | –
N.N.[Cl][Pt][Cl] [Cisplatin, cisplatin] | – | – | – | – | – | – | – | – | – | – | – | 8.4 ± 0.8 | – | – | –
CC(=O)O[C@H](CC(=O)[O-])C[N+](C)(C)C [Acetyl L-carnitine, acetyl L-carnitine] | 5 ± 0.51 | 40.6 ± 3.4 | 38.5 ± 1.9 | 0.16 ± 0.02 | 560 ± 61 | 35 ± 3.2 | improves | 32.7 ± 2.5 | 1.15 ± 0.11 | 509.5 ± 28 | 405.9 ± 25 | 9.5 ± 0.6 | 25.6 ± 1.5 | more than 500 mg/kg | more than 250 mg/kg
